Measured values from the supplement of paper PMC10307832.

Assays:
Experiment in all cases: relative viability (nuclei count vs DMSO), 5 days (fraction); higher = more cells survive
A-427 = tested on: A-427
In short: (§1)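 Relative viability equals treated-well nuclei counts divided by vehicle-well nuclei counts. Counts came from 4× images of lung cancer cell lines grown in 1536-well plates for 5 days after pin-tool dosing on the day after seeding. Dosing used one drug alone or a fixed anchor-drug dose plus five library-drug doses (not always all listed) in √10 steps, and values are medians of duplicate plates.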

CAL-12T = tested on: CAL-12T
In short: as §1

COR-L 105 = tested on: COR-L 105
In short: as §1

COR-L23 = tested on: COR-L23
In short: as §1

HOP-62 = tested on: HOP-62
In short: as §1

LCLC-103H = tested on: LCLC-103H
In short: as §1

LXF-289 = tested on: LXF-289
In short: as §1

NCI-H1395 = tested on: NCI-H1395
In short: as §1

NCI-H1651 = tested on: NCI-H1651
In short: as §1

NCI-H1975 = tested on: NCI-H1975
In short: as §1

NCI-H2023 = tested on: NCI-H2023
In short: as §1

NCI-H2085 = tested on: NCI-H2085
In short: as §1

NCI-H2087 = tested on: NCI-H2087
In short: as §1

NCI-H2170 = tested on: NCI-H2170
In short: as §1

NCI-H2342 = tested on: NCI-H2342
In short: as §1

NCI-H3122 = tested on: NCI-H3122
In short: as §1

NCI-H596 = tested on: NCI-H596
In short: as §1

NCI-H647 = tested on: NCI-H647
In short: as §1

NCI-H650 = tested on: NCI-H650
In short: as §1

RERF-LC-KJ = tested on: RERF-LC-KJ
In short: as §1

SK-MES-1 = tested on: SK-MES-1
In short: as §1

## COCC1(CO)C(=O)C2CCN1CC2 (configuration not stated) [PRIMA-1MET] + O=C(CCCCCCC(=O)Nc1ccccc1)NO [Vorinostat] (partner 1 µM)
A-427; first compound 0.2 µM
  relative viability: 1.1
A-427; first compound 0.6325 µM
  relative viability: 0.869
A-427; first compound 2 µM
  relative viability: 0.856
A-427; first compound 6.325 µM
  relative viability: 0.949
A-427; first compound 20 µM
  relative viability: 0.865
CAL-12T; first compound 0.2 µM
  relative viability: 0.78
CAL-12T; first compound 0.6325 µM
  relative viability: 0.694
CAL-12T; first compound 2 µM
  relative viability: 0.637
CAL-12T; first compound 6.325 µM
  relative viability: 0.589
CAL-12T; first compound 20 µM
  relative viability: 0.0657
COR-L 105; first compound 0.2 µM
  relative viability: 1.13
COR-L 105; first compound 0.6325 µM
  relative viability: 0.859
COR-L 105; first compound 2 µM
  relative viability: 0.769
COR-L 105; first compound 6.325 µM
  relative viability: 0.771
COR-L 105; first compound 20 µM
  relative viability: 0.196
COR-L23; first compound 0.2 µM
  relative viability: 0.487
COR-L23; first compound 0.6325 µM
  relative viability: 0.432
COR-L23; first compound 2 µM
  relative viability: 0.454
COR-L23; first compound 6.325 µM
  relative viability: 0.344
COR-L23; first compound 20 µM
  relative viability: 0.0281
HOP-62; first compound 0.2 µM
  relative viability: 0.59
HOP-62; first compound 0.6325 µM
  relative viability: 0.445
HOP-62; first compound 2 µM
  relative viability: 0.488
HOP-62; first compound 6.325 µM
  relative viability: 0.623
HOP-62; first compound 20 µM
  relative viability: 0.245
LCLC-103H; first compound 0.2 µM
  relative viability: 0.76
LCLC-103H; first compound 0.6325 µM
  relative viability: 0.64
LCLC-103H; first compound 2 µM
  relative viability: 0.558
LCLC-103H; first compound 6.325 µM
  relative viability: 0.771
LCLC-103H; first compound 20 µM
  relative viability: 0.793
LXF-289; first compound 0.2 µM
  relative viability: 0.864
LXF-289; first compound 0.6325 µM
  relative viability: 0.628
LXF-289; first compound 2 µM
  relative viability: 0.79
LXF-289; first compound 6.325 µM
  relative viability: 0.796
LXF-289; first compound 20 µM
  relative viability: 0.745
NCI-H1395; first compound 0.2 µM
  relative viability: 0.623
NCI-H1395; first compound 2 µM
  relative viability: 0.534
NCI-H1395; first compound 6.325 µM
  relative viability: 0.762
NCI-H1395; first compound 20 µM
  relative viability: 0.26
NCI-H1651; first compound 0.2 µM
  relative viability: 0.563
NCI-H1651; first compound 0.6325 µM
  relative viability: 0.188
NCI-H1651; first compound 2 µM
  relative viability: 0.458
NCI-H1651; first compound 6.325 µM
  relative viability: 0.617
NCI-H1651; first compound 20 µM
  relative viability: 0.564
NCI-H1975; first compound 0.2 µM
  relative viability: 0.766
NCI-H1975; first compound 0.6325 µM
  relative viability: 0.657
NCI-H1975; first compound 2 µM
  relative viability: 0.736
NCI-H1975; first compound 6.325 µM
  relative viability: 0.725
NCI-H1975; first compound 20 µM
  relative viability: 0.698
NCI-H2023; first compound 0.2 µM
  relative viability: 1.06
NCI-H2023; first compound 0.6325 µM
  relative viability: 0.474
NCI-H2023; first compound 2 µM
  relative viability: 0.442
NCI-H2023; first compound 6.325 µM
  relative viability: 0.734
NCI-H2023; first compound 20 µM
  relative viability: 0.254
NCI-H2085; first compound 0.2 µM
  relative viability: 1.06
NCI-H2085; first compound 0.6325 µM
  relative viability: 0.776
NCI-H2085; first compound 2 µM
  relative viability: 0.706
NCI-H2085; first compound 6.325 µM
  relative viability: 0.798
NCI-H2085; first compound 20 µM
  relative viability: 0.154
NCI-H2087; first compound 0.6325 µM
  relative viability: 0.479
NCI-H2087; first compound 2 µM
  relative viability: 0.604
NCI-H2087; first compound 6.325 µM
  relative viability: 0.477
NCI-H2087; first compound 20 µM
  relative viability: 0.336
NCI-H2170; first compound 0.2 µM
  relative viability: 1.05
NCI-H2170; first compound 0.6325 µM
  relative viability: 0.801
NCI-H2170; first compound 2 µM
  relative viability: 0.721
NCI-H2170; first compound 6.325 µM
  relative viability: 0.795
NCI-H2170; first compound 20 µM
  relative viability: 0.774
NCI-H2342; first compound 0.2 µM
  relative viability: 0.694
NCI-H2342; first compound 0.6325 µM
  relative viability: 0.913
NCI-H2342; first compound 6.325 µM
  relative viability: 0.748
NCI-H2342; first compound 20 µM
  relative viability: 0.607
NCI-H3122; first compound 0.2 µM
  relative viability: 1.01
NCI-H3122; first compound 0.6325 µM
  relative viability: 0.861
NCI-H3122; first compound 2 µM
  relative viability: 0.686
NCI-H3122; first compound 6.325 µM
  relative viability: 1.07
NCI-H3122; first compound 20 µM
  relative viability: 0.861
NCI-H596; first compound 0.2 µM
  relative viability: 0.694
NCI-H596; first compound 0.6325 µM
  relative viability: 0.589
NCI-H596; first compound 2 µM
  relative viability: 0.421
NCI-H596; first compound 6.325 µM
  relative viability: 0.732
NCI-H596; first compound 20 µM
  relative viability: 0.147
NCI-H647; first compound 0.2 µM
  relative viability: 0.849
NCI-H647; first compound 0.6325 µM
  relative viability: 0.444
NCI-H647; first compound 2 µM
  relative viability: 0.549
NCI-H647; first compound 6.325 µM
  relative viability: 0.538
NCI-H647; first compound 20 µM
  relative viability: 0.596
NCI-H650; first compound 0.2 µM
  relative viability: 0.54
NCI-H650; first compound 0.6325 µM
  relative viability: 0.361
NCI-H650; first compound 2 µM
  relative viability: 0.442
NCI-H650; first compound 6.325 µM
  relative viability: 0.311
NCI-H650; first compound 20 µM
  relative viability: 0.0619
RERF-LC-KJ; first compound 0.2 µM
  relative viability: 0.817
RERF-LC-KJ; first compound 0.6325 µM
  relative viability: 0.507
RERF-LC-KJ; first compound 2 µM
  relative viability: 0.589
RERF-LC-KJ; first compound 6.325 µM
  relative viability: 0.911
RERF-LC-KJ; first compound 20 µM
  relative viability: 0.659
SK-MES-1; first compound 0.2 µM
  relative viability: 1.26
SK-MES-1; first compound 0.6325 µM
  relative viability: 1.08
SK-MES-1; first compound 2 µM
  relative viability: 1.05
SK-MES-1; first compound 6.325 µM
  relative viability: 1.24
SK-MES-1; first compound 20 µM
  relative viability: 1.18
